According to patent US5212326A, “Sodium hydrogen divalproate oligomer” (Abbott Laboratories, priority 1991, dated 1993):

Experiments:
Type in all cases: in vivo
[1] = Bioavailability study, blood plasma levels in mouse; settings: po, 200 mg/kg, equimolar doses, 30 minutes after administration, read-out: peak blood plasma levels
Procedure: (§1) In a bioavailability study carried out with (A) and (C) above in various animal species, the peak blood plasma levels of oral, equimolar doses are determined according to standard procedures, 30 minutes after drug administration.

[2] = system: Pentylenetetrazole seizures; assay: Anticonvulsant activity, pentylenetetrazole seizures in mice (oral ED50); settings: based on equimolar valproic acid equivalents
Excerpt: (§2) In a comparison of anticonvulsant activities of
(§3) the oral ED50 based on equimolar valproic acid equivalents are established by standard procedures.

[3] = Bioavailability study, blood plasma levels in rat; settings: po, 200 mg/kg, equimolar doses, 30 minutes after administration, read-out: peak blood plasma levels
Procedure: as §1

[4] = system: Pentylenetetrazole seizures; assay: Anticonvulsant activity, pentylenetetrazole seizures in rats (oral ED50); settings: Rattus norvegicus, based on equimolar valproic acid equivalents
Excerpt: as §2, §3

[5] = Bioavailability study, blood plasma levels and AUC in dog; settings: po, 25 mg/kg, equimolar doses
Procedure: as §1
*Area under the curve value for 0-7 hours.

Row | Compound | Cmax at 0.5 h [1] | oral ED50, Pentylenetetrazole seizures (mice) [2] | Cmax at 0.5 h [3] | ED50 [4] | AUC at 7 h ([5]; 0-7 hours, read-out: AUC (Area under the curve value for 0-7 hours)) | Cmax at 0.5 h ([5]; 30 minutes after administration, read-out: peak blood plasma levels) | ED50 ([2]; Mus musculus, po)
1 | CCCC(CCC)C(=O)O [A, 2-propylpentanoic acid] | 134000 ng/g | < 800 mg/kg | 84100 ng/g | 355 mg/kg | 82300 ng·h/mL | 65200 ng/g | –
2 | CCCC(CCC)C(=O)[O-].[Na+] [B, sodium valproate] | – | – | – | 415 mg/kg | – | – | 282 mg/kg
